Where “and” joins values, the source holds several entries; their conditions need not be identical. Equal entries are not always repeated.
Tests used:
[1] = xn = mol fraction of the nth substance listed

C1CC[C@H]2CCCC[C@@H]2C1
viscosity [mPa·s]
Details	293.15 K	303.15 K	323.15 K
101 kPa	–	1.616	–
101.3 kPa	2.118	–	–
102 kPa	2.14	1.79	1.3

CC(C)C(C)C
Details	viscosity [mPa·s]
298 K, 101.33 kPa	0.3249

CC(C)[C@H](N)C(=O)[O-].CCCC[P+](CCCC)(CCCC)CCCN
Details	viscosity [mPa·s]
298.15 K, 101 kPa	1015

CCCCC[N+](CC)(CC)CC.O=S(=O)([N-]S(=O)(=O)C(F)(F)F)C(F)(F)F
101.3 kPa
Details	viscosity [mPa·s]
293.15 K	233
298.15 K	169
303.15 K	126
308.15 K	96.4
313.15 K	75.1
318.15 K	59.6
323.15 K	48

CCCCOCCCOCCCO
101.33 kPa
Details	viscosity [mPa·s]
298.15 K	4.503
308.15 K	3.313
318.15 K	2.531

CCCC[N+]1=C2CCCCCN2CCC1.c1c[n-]cn1
100 kPa
Details	viscosity [mPa·s]
293.15 K	106.7
298.15 K	73.92
303.15 K	53.38
308.15 K	40.19
313.15 K	31.07

CCCC[n+]1ccccc1.O=S(=O)([N-]S(=O)(=O)C(F)(F)F)C(F)(F)F
viscosity [mPa·s]
Details	293.15 K	298.15 K	303.15 K	308.15 K	313.15 K	323.15 K
100 kPa	68.87	52.94	41.94	33.75	27.63	–
101 kPa	–	–	49.4	–	33.8	24.2

CCCCn1cc[n+](C)c1.[Cl][Fe-]([Cl])([Cl])[Cl]
101 kPa
Details	viscosity [mPa·s]
293.15 K	56.56
298.15 K	46
303.15 K	37.95
308.15 K	31.87
313.15 K	27.01
318.15 K	23.24
323.15 K	20.16

CCCOCCO
viscosity
Details	293.15 K	298.15 K	303.15 K	308.15 K	318.15 K
101 kPa	2.575 mPa·s	2.35 mPa·s and 2.35 mPa·s	2.07 mPa·s and 2.124 mPa·s	–	–
101.33 kPa	–	2.351 mPa·s	–	1.895 mPa·s	1.448 mPa·s

CCOCCOCCOCCO
Details	viscosity [mPa·s]
298.15 K, 101.33 kPa	7.042

CCOP(=O)([O-])OCC.CCn1cc[n+](C)c1
100 kPa
Details	viscosity [mPa·s]
293.15 K	566
298.15 K	396.6
303.15 K	285.4
308.15 K	208.7
313.15 K	155.3
318.15 K	117.2
323.15 K	91.75

C[C@H]1CCCC[C@H]1O
101 kPa
Details	viscosity [mPa·s]
298.15 K	17.98
303.15 K	13.53

C[N+](C)(C)C.NCC(=O)[O-]
Details	viscosity [mPa·s]
303 K, 101 kPa	306.2

N#Cc1ccccc1
Details	viscosity
293.15 K, 101 kPa	1.335 mPa·s
293.15 K, 101.33 kPa	1.382 mPa·s
298.15 K, 101 kPa	1.237 mPa·s and 1.196 mPa·s and 1.249 mPa·s
298.15 K, 101.33 kPa	1.282 mPa·s
303 K, 100 kPa	1.099 mPa·s
303.15 K, 101 kPa	1.161 mPa·s and 1.121 mPa·s and 1.124 mPa·s
303.15 K, 101.32 kPa	1.139 mPa·s
303.15 K, 101.33 kPa	1.148 mPa·s
308 K, 100 kPa	1.003 mPa·s
308.15 K, 101.33 kPa	1.063 mPa·s and 1.063 mPa·s
313 K, 100 kPa	0.9545 mPa·s
313.15 K, 101 kPa	0.997 mPa·s
313.15 K, 101.33 kPa	0.993 mPa·s
318.15 K, 101 kPa	0.931 mPa·s
323.15 K, 101 kPa	0.872 mPa·s and 0.866 mPa·s

NCCOCCOCCN.O=S(=O)([N-]S(=O)(=O)C(F)(F)F)C(F)(F)F.[Li+]
Details	viscosity [mPa·s]
323.15 K, 101 kPa	108.2

NNc1ccccc1
101 kPa
Details	viscosity
303.15 K	10.09 mPa·s
323.1 K	4.58 mPa·s and 4.58 mPa·s

Nc1cccc2ccccc12
Details	viscosity [mPa·s]
323.15 K, 101.33 kPa	11.2

CCCOCCO + OCCOCCOCCOCCO
[1], 101 kPa
Details	viscosity [mPa·s]
293.15 K, x1 = 0.0542	48.17
293.15 K, x1 = 0.1014	43.86
293.15 K, x1 = 0.201	35.31
293.15 K, x1 = 0.3003	27.79
293.15 K, x1 = 0.3986	21.51
293.15 K, x1 = 0.4476	18.81
293.15 K, x1 = 0.5026	16.04
293.15 K, x1 = 0.5513	13.99
293.15 K, x1 = 0.6093	11.77
293.15 K, x1 = 0.6955	9.005
293.15 K, x1 = 0.8069	6.17
293.15 K, x1 = 0.8986	4.294
293.15 K, x1 = 0.9299	3.73
298.15 K, x1 = 0.0471	40.86
298.15 K, x1 = 0.1215	35.33
298.15 K, x1 = 0.2008	29.71
298.15 K, x1 = 0.2987	23.76
298.15 K, x1 = 0.4022	18.52
298.15 K, x1 = 0.4601	16.06
298.15 K, x1 = 0.5018	14.48
298.15 K, x1 = 0.5507	12.73
298.15 K, x1 = 0.5961	11.26
298.15 K, x1 = 0.6975	8.355
298.15 K, x1 = 0.7954	5.941
298.15 K, x1 = 0.9023	3.732
298.15 K, x1 = 0.947	2.996
303.15 K, x1 = 0.0564	32.24
303.15 K, x1 = 0.1139	28.91
303.15 K, x1 = 0.2071	23.96
303.15 K, x1 = 0.304	19.47
303.15 K, x1 = 0.3911	15.98
303.15 K, x1 = 0.4512	13.87
303.15 K, x1 = 0.5003	12.29
303.15 K, x1 = 0.5411	11.08
303.15 K, x1 = 0.5977	9.543
303.15 K, x1 = 0.7007	7.098
303.15 K, x1 = 0.794	5.232
303.15 K, x1 = 0.8948	3.54
303.15 K, x1 = 0.9402	2.883

N#Cc1ccccc1 + OCc1ccccc1
[1], 303.15 K, 101 kPa
Details	viscosity [mPa·s]
x2 = 0.146	1.123
x2 = 0.276	1.263
x2 = 0.3251	1.366
x2 = 0.4147	1.535
x2 = 0.5549	1.902
x2 = 0.6387	2.184
x2 = 0.7443	2.635
x2 = 0.8022	2.942
x2 = 0.9039	3.595

NNc1ccccc1 + Oc1ccccc1
[1], 323.1 K, 101 kPa
Details	viscosity [mPa·s]
x1 = 0.181	5.25
x1 = 0.369	7.49
x1 = 0.466	8.02
x1 = 0.502	8.2
x1 = 0.595	8.05
x1 = 0.781	6.56

Nc1cccc2ccccc12 + Oc1ccccc1
viscosity [mPa·s], [1], 101.33 kPa
Details	x1 = 0.4159	x1 = 0.4605	x1 = 0.7133	x1 = 0.8902
303.15 K	24.9	26.9	32.4	–
323.15 K	8.52	9	10.9	11.3

NNc1ccccc1 + Oc1ccccc1Cl
[1], 323.1 K, 101 kPa
Details	viscosity [mPa·s]
x1 = 0.1706	3.51
x1 = 0.401	7.16
x1 = 0.508	8.27
x1 = 0.536	8.18
x1 = 0.781	6.955

CCC(=O)OC + c1ccccc1
viscosity [mPa·s], [1]
Details	298.15 K	308.15 K	313.15 K	318.15 K
101 kPa, x2 = 0.1014	0.435	–	0.373	–
101 kPa, x2 = 0.1972	0.444	–	0.38	–
101 kPa, x2 = 0.3002	0.453	–	0.387	–
101 kPa, x2 = 0.3996	0.466	–	0.397	–
101 kPa, x2 = 0.5012	0.48	–	0.407	–
101 kPa, x2 = 0.6036	0.496	–	0.419	–
101 kPa, x2 = 0.6961	0.513	–	0.43	–
101 kPa, x2 = 0.8009	0.536	–	0.447	–
101 kPa, x2 = 0.898	0.561	–	0.465	–
101.3 kPa, x1 = 0.0415	–	0.53	–	0.466
101.3 kPa, x1 = 0.1037	–	0.52	–	0.461
101.3 kPa, x1 = 0.2041	–	0.505	–	0.453
101.3 kPa, x1 = 0.3026	–	0.492	–	0.446
101.3 kPa, x1 = 0.4053	–	0.48	–	0.44
101.3 kPa, x1 = 0.4569	–	0.474	–	0.437
101.3 kPa, x1 = 0.6013	–	0.462	–	0.43
101.3 kPa, x1 = 0.7026	–	0.453	–	0.425
101.3 kPa, x1 = 0.8018	–	0.447	–	0.43
101.3 kPa, x1 = 0.9039	–	0.441	–	0.418
101.3 kPa, x1 = 0.9674	–	0.438	–	0.417

N#Cc1ccccc1 + c1ccccc1
[1]
Details	viscosity [mPa·s]
298.15 K, 101 kPa, x1 = 0.2	0.688
298.15 K, 101 kPa, x2 = 0.1681	1.098
298.15 K, 101 kPa, x2 = 0.3126	0.9985
298.15 K, 101 kPa, x2 = 0.4381	0.9214
298.15 K, 101 kPa, x2 = 0.5481	0.8456
298.15 K, 101 kPa, x2 = 0.6453	0.7942
298.15 K, 101 kPa, x2 = 0.7318	0.7145
298.15 K, 101 kPa, x2 = 0.8093	0.6845
298.15 K, 101 kPa, x2 = 0.8792	0.6157
298.15 K, 101 kPa, x2 = 0.9423	0.5987
303.15 K, 101 kPa, x2 = 0.1133	1.013
303.15 K, 101 kPa, x2 = 0.1681	0.9758
303.15 K, 101 kPa, x2 = 0.2233	0.932
303.15 K, 101 kPa, x2 = 0.3126	0.9251
303.15 K, 101 kPa, x2 = 0.3302	0.866
303.15 K, 101 kPa, x2 = 0.434	0.812
303.15 K, 101 kPa, x2 = 0.4381	0.8542
303.15 K, 101 kPa, x2 = 0.5349	0.766
303.15 K, 101 kPa, x2 = 0.5481	0.8025
303.15 K, 101 kPa, x2 = 0.633	0.7225
303.15 K, 101 kPa, x2 = 0.6453	0.7256
303.15 K, 101 kPa, x2 = 0.7285	0.68
303.15 K, 101 kPa, x2 = 0.7318	0.6953
303.15 K, 101 kPa, x2 = 0.8093	0.6245
303.15 K, 101 kPa, x2 = 0.8214	0.6395
303.15 K, 101 kPa, x2 = 0.8792	0.5946
303.15 K, 101 kPa, x2 = 0.9119	0.5996
303.15 K, 101 kPa, x2 = 0.9423	0.5742
303.15 K, 101.32 kPa, x2 = 0.1527	1.001
303.15 K, 101.32 kPa, x2 = 0.3165	0.902
303.15 K, 101.32 kPa, x2 = 0.4174	0.831
303.15 K, 101.32 kPa, x2 = 0.5485	0.765
303.15 K, 101.32 kPa, x2 = 0.6569	0.715
303.15 K, 101.32 kPa, x2 = 0.7859	0.659
303.15 K, 101.32 kPa, x2 = 0.9145	0.607
308.15 K, 101 kPa, x1 = 0.2	0.605
308.15 K, 101 kPa, x2 = 0.1681	0.9852
308.15 K, 101 kPa, x2 = 0.3126	0.9457
308.15 K, 101 kPa, x2 = 0.4381	0.8352
308.15 K, 101 kPa, x2 = 0.5481	0.7648
308.15 K, 101 kPa, x2 = 0.6453	0.7054
308.15 K, 101 kPa, x2 = 0.7318	0.6582
308.15 K, 101 kPa, x2 = 0.8093	0.6214
308.15 K, 101 kPa, x2 = 0.8792	0.5743
308.15 K, 101 kPa, x2 = 0.9423	0.5621
313.15 K, 101 kPa, x2 = 0.1681	0.9756
313.15 K, 101 kPa, x2 = 0.3126	0.9143
313.15 K, 101 kPa, x2 = 0.4381	0.8215
313.15 K, 101 kPa, x2 = 0.5481	0.7236
313.15 K, 101 kPa, x2 = 0.6453	0.6974
313.15 K, 101 kPa, x2 = 0.7318	0.6318
313.15 K, 101 kPa, x2 = 0.8093	0.5845
313.15 K, 101 kPa, x2 = 0.8792	0.5413
313.15 K, 101 kPa, x2 = 0.9423	0.5128
318.15 K, 101 kPa, x1 = 0.2	0.532
323.15 K, 101 kPa, x1 = 0.2	0.498

— the CheMixHub viscosity set
